ChEMBL document CHEMBL3797139, “Synthesis and biological evaluation of 1,2-dithiol-3-thiones and pyrrolo[1,2-a]pyrazines as novel hypoxia inducible factor-1 (HIF-1) inhibitor” (Bioorg Med Chem, 2016)
Active and inactive are the calls of the source. The rule behind the calls is not given here.

Experiments:
[1] = Cytotoxicity against human HCT116 cells at 10 uM; type: cell-based; conditions: hct-116, 10 µM
[2] = Cytotoxicity against human HCT116 cells at 30 uM; type: cell-based; conditions: hct-116, 30 µM
HCT-116 [3] = assay: Reduction of insulin-induced HIF-1 alpha target gene expression in human HCT116 cells assessed as decrease in VEGF expression at 30 uM by RT-PCR analysis; type: functional
HCT-116 [4] = assay: Reduction of insulin-induced HIF-1 alpha target gene expression in human HCT116 cells assessed as decrease in Glut-1 expression at 30 uM by RT-PCR analysis; type: functional
HCT-116 [5] = assay: Reduction of insulin-induced HIF-1 alpha expression in human HCT116 cells at 30 uM by western blot analysis; type: functional
HCT-116 [6] = assay: Reduction of insulin-induced HIF-1 alpha target gene expression in human HCT116 cells assessed as decrease in Glut-1 expression at 10 uM by RT-PCR analysis; type: functional; conditions: for inhibition at 10 µM: Homo sapiens, HCT-116
HCT-116 [7] = assay: Reduction of insulin-induced HIF-1 alpha expression in human HCT116 cells at 10 uM by western blot analysis; type: functional; conditions: for inhibition at 10 µM: Homo sapiens, HCT-116
HCT-116 [8] = assay: Reduction of insulin-induced HIF-1 alpha target gene expression in human HCT116 cells assessed as decrease in VEGF expression at 10 uM by RT-PCR analysis; type: functional
HCT-116 [9] = assay: Reduction of insulin-induced HIF-1 alpha expression in human HCT116 cells at 3 uM by western blot analysis; type: functional, cell-based
[10] = Cytotoxicity against human HCT116 cells at 3 uM; type: cell-based; conditions: hct-116, 3 µM

With `CSc1cc(SC)n2ccncc12.Cl` the Activity [1] was “Non-toxic”.
In the case of `Cc1c(-c2cnccn2)ssc1=S` [OLTIPRAZ], the Activity [2] was “Non-toxic”, the inhibition at 30 µM (HCT-116 [3]) was 36% and the inhibition at 30 µM (HCT-116 [4]) was 59%. The inhibition at 30 µM (HCT-116 [5]) was 48%.
In the case of `S=c1ssc(-c2cnccn2)c1Cc1ccc(Cl)cc1`, the Activity [2] was “Non-toxic”.
For `CCCc1c(SC)c2cnccn2c1SC.Cl`, the inhibition (HCT-116 [6]) was “Active”, the inhibition at 10 µM (HCT-116 [7]) was 90% and the inhibition (HCT-116 [8]) was “Active”. For the same molecule, the Activity [1] was “Non-toxic”.
For `CSc1c(C)c(SC)n2ccncc12` [listing 1 of 2 here], the inhibition (HCT-116 [8]) was “inactive”.
In the case of `CSc1c(-c2ccccc2)c(SC)n2ccncc12.Cl`, the inhibition (HCT-116 [6]) was “Active”, the inhibition at 10 µM (HCT-116 [7]) was 3% and the inhibition (HCT-116 [8]) was “Active”. The Activity [1] was “Non-toxic”.
With `CSc1c(Cc2ccc(C)cc2)c(SC)n2ccncc12.Cl` the Activity [1] was “Toxic”.
For `CSc1c(Cc2ccc(Cl)cc2)c(SC)n2ccncc12.Cl`, the Activity [1] was “Toxic”.
In the case of `CCc1c(-c2cnccn2)ssc1=S`, the Activity [2] was “Non-toxic”.
For `CCCc1c(-c2cnccn2)ssc1=S`, the Activity [2] was “Non-toxic”, the inhibition at 30 µM (HCT-116 [3]) was 70% and the inhibition at 30 µM (HCT-116 [4]) was 86%. It also gave an inhibition at 30 µM (HCT-116 [5]) of 76%.
In the case of `COc1ccc(Cc2c(SC)c3cnccn3c2SC)cc1.Cl`, the Activity [1] was “Toxic”.
In the case of `Cc1ccc(Cc2c(-c3cnccn3)ssc2=S)cc1`, the Activity [2] was “Non-toxic”.
With `CCc1c(SC)c2cnccn2c1SC.Cl` the inhibition at 10 µM (HCT-116 [7]) was 86% and the Activity [1] was “Non-toxic”.
`CSc1c(Cc2ccccc2)c(SC)n2ccncc12.Cl` gave an inhibition at 10 µM (HCT-116 [6]) of 92%, an inhibition at 10 µM (HCT-116 [7]) of 81% and an inhibition at 10 µM (HCT-116 [8]) of 77%. The Activity [1] was “Non-toxic”.
With `CSc1c(C)c(SC)n2ccncc12` [listing 2 of 2 here] the inhibition at 10 µM (HCT-116 [6]) was 14% and the inhibition at 10 µM (HCT-116 [7]) was 37%.
For `S=c1ssc(-c2cnccn2)c1CCc1ccccc1`, the Activity [2] was “Non-toxic” and the inhibition at 30 µM (HCT-116 [5]) was 65%.
In the case of `CCCCc1c(-c2cnccn2)ssc1=S`, the Activity [2] was “Non-toxic” and the inhibition at 30 µM (HCT-116 [5]) was 80%.
For `OCc1ccc(-c2nn(Cc3ccccc3)c3ccccc23)o1`, the inhibition (HCT-116 [9]) was “Active” and the Activity [10] was “Non-toxic”.
With `CSc1c(SC)c2cnccn2c1SC.Cl` the inhibition at 10 µM (HCT-116 [7]) was 6% and the Activity [1] was “Non-toxic”.
With `CCCCc1c(SC)c2cnccn2c1SC.Cl` the Activity [1] was “Non-toxic”.
For `COc1ccc(Cc2c(-c3cnccn3)ssc2=S)cc1`, the Activity [2] was “Non-toxic”.
With `CC[C@@]1(O)C(=O)OCc2c1cc1n(c2=O)Cc2cc3c(CN(C)C)c(O)ccc3nc2-1` [TOPOTECAN] the inhibition (HCT-116 [9]) was “Active” and the Activity [10] was “Non-toxic”.
In the case of `CSc1c(CCc2ccccc2)c(SC)n2ccncc12.Cl`, the inhibition at 10 µM (HCT-116 [7]) was 87% and the Activity [1] was “Toxic”.
With `S=c1ssc(-c2cnccn2)c1-c1ccccc1` the Activity [2] was “Non-toxic”, the inhibition (HCT-116 [3]) was “Active” and the inhibition (HCT-116 [4]) was “Active”. It also gave an inhibition at 30 µM (HCT-116 [5]) of 8%.
With `S=c1ssc(-c2cnccn2)c1Cc1ccccc1` the Activity [2] was “Non-toxic” and the inhibition at 30 µM (HCT-116 [5]) was 41%.
For `S=c1cc(-c2cnccn2)ss1`, the Activity [2] was “Toxic”.
With `CSc1c(C)c(SC)n2ccncc12.Cl` the “inhibition (INH)” value (HCT-116 [6]) was 14%, the “inhibition (INH)” value (HCT-116 [7]) was 37% and the Activity [1] was “Non-toxic”.
